According to paper PMC5597618, “Identification and characterization of the novel reversible and selective cathepsin X inhibitors” (Scientific Reports, 2017):

Columns and labels:
Cathepsin S = target: T1, Cathepsin S (Homo sapiens, UniProt P25774); experiment: Ki against cathepsin S (Z-VVR-AMC); format: biochemical; conditions: SigmaPlot at 3 different substrate concentrations; pH 6.5
T1 construct: made in house; host or cells: Pichia pastoris
Protocol: (§1) Recombinant or native human cathepsins were used: recombinant cathepsin X and cathepsin S were expressed in Pichia pastoris, recombinant cathepsins B and L in E. coli, [43], native cathepsin H was isolated from human liver. Assay buffers for determining activities of cathepsins X and L consisted of 100 mM sodium acetate buffer, pH 5.5, for cathepsins H, S and B (endopeptidase activity) of 100 mM phosphate buffer pH 6.8, 6.5 and 6.0, respectively and for cathepsin B (exopeptidase activity) of 60 mM acetate buffer pH 5.0. Each assay buffer contained 0.01% Triton X-100 to prevent false positive inhibition due to aggregation of compounds[45], 5 mM cysteine, 1.5 mM EDTA and 0.1% PEG 8000. Enzymes were activated at 37 °C for 5 min before the assays.
(§2) Ki was determined by measuring the initial rate of hydrolysis at three different substrate concentrations (Supplementary Table S2) in the presence of seven different compound concentrations (0, 20, 40, 60, 80, 100 and 200 μM). 90 μL of the activated cathepsin was added to a black 96-well plate with 5 μL of the substrate and 5 μL of the compound. Formation of the fluorescent degradation product was monitored continuously at 460 nm ± 10 nm with excitation at 380 nm ± 20 nm (for AMC substrates) and, as noted above for Abz substrates, at 37 °C. All measurements were performed twice and in duplicate. The resulting data were analyzed by non-linear regression using the software SigmaPlot®, Enzyme Kinetics Module™ 1.3 and were fitted to the equation v = v max [S]/([S] (1 + [I]/αK i ) + K m (1 + [I]/K i )) (first group of compounds). For Ki determination against cathepsin X for the compounds from the second group, progress curves in the absence and presence of each putative inhibitor were fitted to the reaction mechanism presented in Fig. 3b. In this case the resulting data as well as reactivation curves were fitted to the equation system presented in Fig. 3c using ENZO application. For calculation of kinetic parameters from reaction progress curves the fluorescence coefficient for conversion of arbitrary fluorescence units to concentration was first determined. The fluorescence coefficient was calculated as the slope from the plot of initial substrate concentration vs. height of the plateau of the progress curve after complete hydrolysis of increasing concentrations of substrate, using linear regression.
(§3) Supplementary Table S2. Substrates used for the various cathepsins and their concentrations […]
(§4) Enzyme Substrate Concentration (µM) Reference/Company cathepsin X Abz-FEK(Dnp)-OH 3.25, 6.5, 13 Puzer et al.3 cathepsin B - endopept. Z-RR-AMC 60, 180, 360 Bachem cathepsin B - exopept. Abz-GIVRAK(Dnp)-OH 1, 3, 6 Bachem cathepsin S Z-VVR-AMC 0.5, 1, 1.5 Biomol cathepsin L Z-FR-AMC 0.5, 1, 4 Bachem cathepsin H Z-R-AMC 20, 80, 160 Biomol […]

PC-3 cells = experiment: Cellular uptake and retention by LC-MS/MS; format: in vitro ADME, human; conditions: 50 µM, after 1 hour
Protocol: (§5) Evaluation of cellular uptake and retention of compound 22: sample preparation and LC- […]
(§6) PC-3 cells were treated for 1 hour with compound 22 (50 µM). Cells were washed twice with cold PBS, trypsinized, washed once more and centrifuged. A pellet of cells was resuspended in 200 µL of PBS (or in 200 µL of PBS containing 5µM inhibitor for standard addition) and transferred to 1.5 mL Eppendorf vials prefilled with 0.1 mm and 0.5 mm glass beads (NextAdvance, USA). All cell samples were then homogenized with a BulletBlender (NextAdvance, USA) for 5 min at speed setting »6«. […]
(§7) (2.30;50), (2.50;50), (2.6;5). […] ESI Jetstream parameters were set as follows: drying gas temperature 275 °C, drying gas flow 5 L/min, nebulizer 45 psi, sheath gas temperature 320 °C, sheath gas flow 11 L/min, capillary entrance voltage 4000 V and nozzle voltage 1000 V. Quadrupoles Q1 and Q3 were set at the widest resolution (2.5 amu) and multiple reaction monitoring (MRM) mass transitions used for the quantification of recorded traces are presented in Supplementary Table S4. […]
(§8) PC-3 cell lysate was diluted in cathepsin X assay buffer (1 mg/ml protein concentration). […] After blocking with 5% skimmed milk powder in TBS with 0.05% Tween 20, membrane was incubated with streptavidin-HRP (1:5000; Jackson ImmunoResearch) for 1 hour and proteins were detected with […]

cathepsin X = cathepsin X (Homo sapiens, UniProt Q9UBR2); experiment: Labeling of cathepsin X with activity-based probe DCG-04 in PC-3 cell lysate; format: biochemical; parameters: endogenous in cells; host or cells: PC-3; conditions: 10 µM inhibitor
cathepsin X, sequence (Q9UBR2 62-303): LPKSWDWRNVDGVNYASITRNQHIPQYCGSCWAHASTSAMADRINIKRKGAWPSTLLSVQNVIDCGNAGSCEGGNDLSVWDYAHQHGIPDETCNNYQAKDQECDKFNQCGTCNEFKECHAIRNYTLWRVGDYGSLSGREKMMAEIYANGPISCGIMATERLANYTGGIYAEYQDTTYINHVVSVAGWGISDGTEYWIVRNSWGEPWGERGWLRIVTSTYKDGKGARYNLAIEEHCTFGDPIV
Protocol: as §5, §6, §7, §8

[1] = target: T2, Cathepsin B (exopeptidase a.) (Homo sapiens, UniProt P07858); experiment: Ki against cathepsin B exopeptidase activity (Abz-GIVRAK(Dnp)-OH); format: biochemical; conditions: SigmaPlot at 3 different substrate concentrations; pH 5.0
T2 construct: made in house; host or cells: E. coli
Protocol: as §1, §2, §3, §4

T1 sequence (P25774 115-331): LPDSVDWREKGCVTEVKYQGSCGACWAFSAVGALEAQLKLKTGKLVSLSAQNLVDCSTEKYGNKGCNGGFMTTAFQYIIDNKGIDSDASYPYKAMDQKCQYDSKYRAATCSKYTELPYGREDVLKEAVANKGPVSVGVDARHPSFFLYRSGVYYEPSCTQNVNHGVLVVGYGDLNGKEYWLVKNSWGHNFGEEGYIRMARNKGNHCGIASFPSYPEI

Ki Cathepsin S (Cathepsin S): n.i.
% of 22 in the cell media (PC-3 cells): 84%
delay of cathepsin X labeling by DCG-04 (cathepsin X): approximately 20 minutes
Ki [1]: 306 ± 38.1 µM
Compound: CC(C)n1cnnc1SCC(=O)c1ccc2c(c1)OCCO2 [Compound 22, 1-(2,3-Dihydrobenzo[b][1,4]dioxin-6-yl)-2-((4-isopropyl-4H-1,2,4-triazol-3-yl)thio)ethan-1-one]
